In EP4741392A1, “1H-PYRAZOLO[4,3-C]PYRIDINE COMPOUND, AND COMPOSITION THEREOF AND USE THEREOF” (Shenzhen TargetRx Co., Ltd., priority 2023, dated 2025):

What was measured:
Experiment in all cases: Kinase activity inhibition assay (HTRF TK Kit), selectivity
Type in all cases: biochemical
[1] = target: T1, EGFR (Homo sapiens, UniProt P00533)
T1 construct: purchased Carna 08-115
Summary of the method: (§1)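 Read-out: 665/620 nm HTRF ratio after 1 h room-temperature detection with streptavidin-XL665 and TK antibody-cryptate. Kinase reactions (compound, substrate/ATP, enzyme, assembled on ice) ran at room temperature beforehand. Inhibition normalised to blank and positive controls, IC50 by variable-slope sigmoidal fit.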

[2] = target: T2, ITK (Homo sapiens, UniProt Q08881)
T2 construct: purchased Carna 08-181
T2 sequence (Q08881 1-620): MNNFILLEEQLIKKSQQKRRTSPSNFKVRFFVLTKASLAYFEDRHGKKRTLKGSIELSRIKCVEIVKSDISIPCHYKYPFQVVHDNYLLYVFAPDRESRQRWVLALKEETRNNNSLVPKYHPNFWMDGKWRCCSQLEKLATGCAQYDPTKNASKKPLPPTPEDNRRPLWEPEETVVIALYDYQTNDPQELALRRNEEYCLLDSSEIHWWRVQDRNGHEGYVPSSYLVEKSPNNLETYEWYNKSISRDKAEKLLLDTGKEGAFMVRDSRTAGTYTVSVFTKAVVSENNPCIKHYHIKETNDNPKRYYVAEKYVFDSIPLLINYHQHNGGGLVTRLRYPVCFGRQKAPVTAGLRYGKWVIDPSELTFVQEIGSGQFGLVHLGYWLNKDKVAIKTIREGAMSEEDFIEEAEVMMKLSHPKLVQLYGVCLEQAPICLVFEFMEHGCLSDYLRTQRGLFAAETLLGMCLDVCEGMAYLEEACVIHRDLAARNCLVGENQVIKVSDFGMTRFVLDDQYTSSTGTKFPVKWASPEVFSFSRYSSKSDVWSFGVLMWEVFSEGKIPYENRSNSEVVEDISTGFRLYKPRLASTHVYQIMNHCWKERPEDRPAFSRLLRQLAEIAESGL
Summary of the method: as §1

[3] = target: T3, TEC (Homo sapiens, UniProt P42680)
T3 construct: purchased Carna 08-182
T3 sequence (P42680 1-631): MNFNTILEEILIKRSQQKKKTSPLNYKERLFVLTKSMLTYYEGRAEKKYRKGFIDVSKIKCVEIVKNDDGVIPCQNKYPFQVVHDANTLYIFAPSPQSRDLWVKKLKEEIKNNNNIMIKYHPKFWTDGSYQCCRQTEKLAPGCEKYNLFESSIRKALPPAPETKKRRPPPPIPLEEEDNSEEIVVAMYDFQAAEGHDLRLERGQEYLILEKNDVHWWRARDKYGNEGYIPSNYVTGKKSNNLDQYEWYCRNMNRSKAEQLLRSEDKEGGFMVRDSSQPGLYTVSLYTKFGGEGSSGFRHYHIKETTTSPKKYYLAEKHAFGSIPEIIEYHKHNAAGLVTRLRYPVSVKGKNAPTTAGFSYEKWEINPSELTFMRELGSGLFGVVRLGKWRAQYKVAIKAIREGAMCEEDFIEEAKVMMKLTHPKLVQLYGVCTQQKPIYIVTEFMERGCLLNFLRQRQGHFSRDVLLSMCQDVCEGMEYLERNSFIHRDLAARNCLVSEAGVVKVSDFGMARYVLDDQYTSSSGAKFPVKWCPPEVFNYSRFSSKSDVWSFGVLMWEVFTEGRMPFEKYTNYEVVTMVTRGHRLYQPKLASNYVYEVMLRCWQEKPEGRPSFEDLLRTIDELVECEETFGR
Summary of the method: as §1

| IC50 [1] [nM] | IC50 [2] [nM] | IC50 [3] [nM] | Molecule |
| --- | --- | --- | --- |
| 5 to 50 | 50 to 500 | 5 to 50 | COc1ccc(F)cc1C(=O)NCc1ccc(-c2ncc(-c3cc4cnccn4n3)c3[nH]nc(N)c23)cc1 [Example 78, N-(4-(3-amino-7-(pyrazolo[1,5-a]pyrazin-2-yl)-1H-pyrazolo[4,3-c]pyridin-4-yl)benzyl)-5-fluoro-2-methoxybenzamide] |
| > 500 | > 500 | 50 to 500 | COc1ccc(F)cc1C(=O)NCc1ccc(-c2ncc(-c3ccc(F)cn3)c3[nH]nc(N)c23)c(F)c1 [Example 82, N-(4-(3-amino-7-(5-fluoropyridin-2-yl)-1H-pyrazolo[4,3-c]pyridin-4-yl)-3-fluorobenzyl)-5-fluoro-2-methoxybenzamide] |
| > 500 | > 500 | > 500 | COc1ccc(F)cc1C(=O)NCc1ccc(-c2nc(C)c(-c3ncccn3)c3[nH]nc(N)c23)cc1 [Example 84, N-(4-(3-amino-6-methyl-7-(pyrimidin-2-yl)-1H-pyrazolo[4,3-c]pyridin-4-yl)benzyl)-5-fluoro-2-methoxybenzamide] |
| > 500 | > 500 | 50 to 500 | COc1ccc(F)cc1C(=O)NCc1ccc(-c2nc(C(F)F)c(-c3ncccn3)c3[nH]nc(N)c23)cc1 [Example 85, N-(4-(3-amino-6-(difluoromethyl)-7-(pyrimidin-2-yl)-1H-pyrazolo[4,3-c]pyridin-4-yl)benzyl)-5-fluoro-2-methoxybenzamide] |
| 50 to 500 | > 500 | 50 to 500 | COc1ccc(F)cc1C(=O)NCc1ccc(-c2nc(C3CCSCC3)cc3[nH]nc(N)c23)cc1 [Example 91, N-(4-(3-amino-6-(tetrahydro-2H-thiopyran-4-yl)-1H-pyrazolo[4,3-c]pyridin-4-yl)benzyl)-5-fluoro-2-methoxybenzamide] |
| 50 to 500 | > 500 | 5 to 50 | C=CC(=O)N1CCCC(c2cc3[nH]nc(N)c3c(-c3ccc(CNC(=O)c4cc(F)ccc4OC)cc3)n2)C1 (stereo not drawn) [Example 96, N-(4-(6-(1-acryloylpiperidin-3-yl)-3-amino-1H-pyrazolo[4,3-c]pyridin-4-yl)benzyl)-5-fluoro-2-methoxybenzamide] |
| 50 to 500 | > 500 | 5 to 50 | COc1ccc(F)cc1C(=O)NCc1ccc(-c2ncc(-c3nccn4nccc34)c3[nH]nc(N)c23)cc1 [Example 98, N-(4-(3-amino-7-(pyrazolo[1,5-a]pyrazin-4-yl)-1H-pyrazolo[4,3-c]pyridin-4-yl)benzyl)-5-fluoro-2-methoxybenzamide] |
| 50 to 500 | > 500 | 5 to 50 | COc1ccc(F)cc1C(=O)NCc1ccc(-c2ncc(-c3nc4ccccc4s3)c3[nH]nc(N)c23)cc1 [Example 99, N-(4-(3-amino-7-(benzo[d]thiazol-2-yl)-1H-pyrazolo[4,3-c]pyridin-4-yl)benzyl)-5-fluoro-2-methoxybenzamide] |
| 50 to 500 | > 500 | 5 to 50 | COc1ccc(F)cc1C(=O)NCc1ccc(-c2ncc(-c3nc4cccnc4s3)c3[nH]nc(N)c23)cc1 [Example 100, N-(4-(3-amino-7-(thiazolo[5,4-b]pyridin-2-yl)-1H-pyrazolo[4,3-c]pyridin-4-yl)benzyl)-5-fluoro-2-methoxybenzamide] |
| 50 to 500 | 50 to 500 | 5 to 50 | CCN1CCc2nc(-c3cnc(-c4ccc(CNC(=O)c5cc(F)ccc5OC)cc4)c4c(N)n[nH]c34)sc2C1 [Example 101, N-(4-(3-amino-7-(5-ethyl-4,5,6,7-tetrahydrothiazolo[5,4-c]pyridin-2-yl)-1H-pyrazolo[4,3-c]pyridin-4-yl)benzyl)-5-fluoro-2-methoxybenzamide] |
| 50 to 500 | > 500 | > 500 | COc1ccc(F)cc1C(=O)NCc1ccc(-c2ncc(-c3ccc4c(n3)nc3n4CCOC3)c3[nH]nc(N)c23)cc1 [Example 102, N-(4-(3-amino-7-(6,7-dihydro-9H-pyrido[2',3':4,5]imidazo[2,1-c][1,4]oxazin-2-yl)-1H-pyrazolo[4,3-c]pyridin-4-yl)benzyl)-5-fluoro-2-methoxybenzamide] |
| 50 to 500 | > 500 | > 500 | COc1ccc(F)cc1C(=O)NCc1ccc(-c2ncc(-c3ccc4c(n3)nc3n4C(C)COC3)c3[nH]nc(N)c23)cc1 (stereo not drawn) [Example 103, N-(4-(3-amino-7-(6-methyl-6,7-dihydro-9H-pyrido[2',3':4,5]imidazo[2,1-c][1,4]oxazin-2-yl)-1H-pyrazolo[4,3-c]pyridin-4-yl)benzyl)-5-fluoro-2-methoxybenzamide] |
| > 500 | > 500 | > 500 | COc1ccc(F)cc1C(=O)NCc1ccc(-c2ncc(-c3cccnc3)c3[nH]nc(N)c23)cc1 [Example 105, N-(4-(3-amino-7-(pyridin-3-yl)-1H-pyrazolo[4,3-c]pyridin-4-yl)benzyl)-5-fluoro-2-methoxybenzamide] |
| > 500 | > 500 | > 500 | COc1ccc(F)cc1C(=O)NCc1ccc(-c2ncc(-c3ccncc3)c3[nH]nc(N)c23)cc1 [Example 106, N-(4-(3-amino-7-(pyridin-4-yl)-1H-pyrazolo[4,3-c]pyridin-4-yl)benzyl)-5-fluoro-2-methoxybenzamide] |
| 50 to 500 | > 500 | 50 to 500 | COc1ccc(F)cc1C(=O)NCc1ccc(-c2nc(C3CCOCC3)cc3[nH]nc(N)c23)cc1 [Example 115, N-(4-(3-amino-6-(tetrahydro-2H-pyran-4-yl)-1H-pyrazolo[4,3-c]pyridin-4-yl)benzyl)-5-fluoro-2-methoxybenzamide] |
| 5 to 50 | > 500 | 50 to 500 | COc1ccc(F)cc1C(=O)NCc1ccc(-c2nc([C@H]3CC[C@H](CO)CC3)cc3[nH]nc(N)c23)cc1 [Example 117, N-(4-(3-amino-6-((1r,4r)-4-(hydroxymethyl)cyclohexyl)-1H-pyrazolo[4,3-c]pyridin-4-yl)benzyl)-5-fluoro-2-methoxybenzamide] |
| 5 to 50 | 50 to 500 | 5 to 50 | N-(4-(3-amino-7-(1-(difluoromethyl)-1H-pyrazol-3-yl)-1H-pyrazolo[4,3-c]pyridin-4-yl)benzyl)-5-fluoro-2-methoxybenzamide [Example 29] |

| Molecule | IC50 [1] [nM] | IC50 [2] [nM] | IC50 [3] [nM] |
| --- | --- | --- | --- |
| COc1ccc(F)cc1C(=O)NCc1ccc(-c2ncc(-c3ccc(NC(=O)C4CC4)cn3)c3[nH]nc(N)c23)cc1 [Example 79, N-(4-(3-amino-7-(5-(cyclopropaneformamido)pyridin-2-yl)-1H-pyrazolo[4,3-c]pyridin-4-yl)benzyl)-5-fluoro-2-methoxybenzamide] | > 500 | > 500 | > 500 |
| COc1ccc(F)cc1C(=O)NCc1ccc(-c2ncc(-c3cc(NC(=O)C4CC4)ccn3)c3[nH]nc(N)c23)cc1 [Example 80, N-(4-(3-amino-7-(4-(cyclopropaneformamido)pyridin-2-yl)-1H-pyrazolo[4,3-c]pyridin-4-yl)benzyl)-5-fluoro-2-methoxybenzamide] | 50 to 500 | > 500 | 5 to 50 |
